Key:
Assay in all cases: Drug protection from pCMBS modification (SCAMP)
Format in all cases: cell-based
Design in all cases: key: +: Mutant-function studies are deemed positive when bulky mutations (mostly tryptophans) at the site significantly reduce positive modulation by anesthetics; -: Negative results are indicated by “–“ symbols
[1] = target: T1, α1S270Cβ3γ2L GABAA receptors (Homo sapiens, UniProt P14867+P18507+P28472, S297C); settings: results of this study (*)
T1 construct: expressed in transfected cells; host or cells: Xenopus oocytes injected with capped mRNA, 1α:1β:5γ
Experimental: (§1) Experiments were performed in ND-96 buffer at room temperature (20–22°C). Oocytes were placed in a low-volume (30µl) flow chamber and impaled with borosilicate microelectrodes filled with 3M KCl (resistance 0.5–3 MΩ) and voltage-clamped at −50 mV (model OC-725C; Warner Instruments, Hamden, CT, USA). Superfusate solutions in ND-96 were delivered at 2 ml/min from glass syringe reservoirs via computer-controlled valves (VC-8; Warner Instruments), a micro-manifold (ALA-VM8; ALA Scientific Instruments, Farmingdale, NY, USA), and PTFE tubing. Currents were digitized at 200 Hz on a computer running ClampEx v8.0 software (Molecular Devices, San Jose, CA, USA). Digitized traces were filtered with a 10-Hz low-pass Bessel function, leak corrected and analyzed for peak amplitude off-line using Clampfit v8 software (Molecular Devices).
(§2) Drug protection from pCMBS modification was assessed under pCMBS exposure conditions that produced approximately half of the maximal modification ratio for each mutant receptor, and a least a value of 3. This approach balanced the magnitude of functional modification signals (smaller with less pCMBS exposure) against the challenge of using a reversibly bound ligand to competitively block an irreversible covalent cysteine-modifying reaction. […] Each oocyte was used in a single SCAMP experiment. […] Etomidate was used as a positive control for anesthetic protection in α1M236C and β3M286C mutants and as a negative control in α1S270C, α1A291C, β3L231C, γ2S301C, γ2I242C, and γ2L246C mutants. R-mTFD-MPAB was used as a positive control in α1S270C, α1A291C, β3L231C, and γ2LS301C mutants and as a negative control in α1M236C and β3M286C mutants. For each cysteine mutant and protective drug combination, five oocytes were studied.
(§3) Non-linear least squares fits and statistical analyses were performed in Prism 10.4.0. (GraphPad Software, San Diego, CA, USA). […] Protection (steric inhibition of pCMBS modification) was inferred when anesthetics produced significant reductions in modification ratios relative to control (no anesthetic) values. The statistical significance threshold was p < 0.05.

[2] = target: T2, α1β3M286Cγ2L GABAA receptors (Homo sapiens, UniProt P14867+P18507+P28472, M311C); settings: results of this study (*); etomidate cell also cites [16]
T2 construct: expressed in transfected cells; host or cells: Xenopus oocytes injected with capped mRNA, 1α:1β:5γ
Experimental: as §1, §2, §3

[3] = target: T3, α1β3γ2S301C GABAA receptors (Homo sapiens, UniProt P14867+P18507+P28472, S340C); settings: results of this study (*)
T3 construct: expressed in transfected cells; host or cells: Xenopus oocytes injected with capped mRNAs mixed 1α:1β:5γ
T3 sequence (P14867 28-456): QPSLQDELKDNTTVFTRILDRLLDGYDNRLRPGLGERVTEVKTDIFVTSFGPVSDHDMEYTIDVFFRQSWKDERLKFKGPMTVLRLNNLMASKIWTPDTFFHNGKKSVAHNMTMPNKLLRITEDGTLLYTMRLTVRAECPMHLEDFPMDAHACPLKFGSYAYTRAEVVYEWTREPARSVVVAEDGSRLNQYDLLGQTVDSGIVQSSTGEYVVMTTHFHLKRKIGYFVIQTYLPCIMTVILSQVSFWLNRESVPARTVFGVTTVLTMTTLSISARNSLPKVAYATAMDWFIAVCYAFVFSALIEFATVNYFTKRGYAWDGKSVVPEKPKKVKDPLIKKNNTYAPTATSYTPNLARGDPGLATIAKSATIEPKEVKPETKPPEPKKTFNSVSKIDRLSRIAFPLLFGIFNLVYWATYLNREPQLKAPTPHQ
T3 sequence (P28472 26-473): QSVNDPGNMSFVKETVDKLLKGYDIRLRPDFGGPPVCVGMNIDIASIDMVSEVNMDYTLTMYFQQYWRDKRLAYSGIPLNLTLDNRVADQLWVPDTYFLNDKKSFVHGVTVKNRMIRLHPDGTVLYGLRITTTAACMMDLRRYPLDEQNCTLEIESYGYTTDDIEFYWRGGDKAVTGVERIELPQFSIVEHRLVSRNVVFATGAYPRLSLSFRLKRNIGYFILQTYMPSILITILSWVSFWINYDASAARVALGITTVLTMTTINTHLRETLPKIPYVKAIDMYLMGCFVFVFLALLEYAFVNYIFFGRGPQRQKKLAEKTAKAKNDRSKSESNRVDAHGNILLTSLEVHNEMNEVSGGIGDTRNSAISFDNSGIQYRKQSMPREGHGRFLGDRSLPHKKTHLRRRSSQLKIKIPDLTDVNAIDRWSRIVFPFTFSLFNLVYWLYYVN
T3 sequence (P18507 40-475 S340C): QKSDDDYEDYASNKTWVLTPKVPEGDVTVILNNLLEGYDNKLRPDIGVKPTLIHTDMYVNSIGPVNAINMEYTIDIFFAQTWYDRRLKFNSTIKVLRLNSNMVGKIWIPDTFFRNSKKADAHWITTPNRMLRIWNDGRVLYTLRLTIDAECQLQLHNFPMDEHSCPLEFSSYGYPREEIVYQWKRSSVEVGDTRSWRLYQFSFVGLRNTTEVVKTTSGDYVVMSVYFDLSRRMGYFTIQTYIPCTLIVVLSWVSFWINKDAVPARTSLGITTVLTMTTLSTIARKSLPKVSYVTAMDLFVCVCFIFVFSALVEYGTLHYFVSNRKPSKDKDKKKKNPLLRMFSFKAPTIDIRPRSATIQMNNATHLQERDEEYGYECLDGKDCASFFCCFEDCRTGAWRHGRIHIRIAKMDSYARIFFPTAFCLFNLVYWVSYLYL
Experimental: as §1, §2, §3

T2 sequence (P28472 26-473 M311C, one chain of several): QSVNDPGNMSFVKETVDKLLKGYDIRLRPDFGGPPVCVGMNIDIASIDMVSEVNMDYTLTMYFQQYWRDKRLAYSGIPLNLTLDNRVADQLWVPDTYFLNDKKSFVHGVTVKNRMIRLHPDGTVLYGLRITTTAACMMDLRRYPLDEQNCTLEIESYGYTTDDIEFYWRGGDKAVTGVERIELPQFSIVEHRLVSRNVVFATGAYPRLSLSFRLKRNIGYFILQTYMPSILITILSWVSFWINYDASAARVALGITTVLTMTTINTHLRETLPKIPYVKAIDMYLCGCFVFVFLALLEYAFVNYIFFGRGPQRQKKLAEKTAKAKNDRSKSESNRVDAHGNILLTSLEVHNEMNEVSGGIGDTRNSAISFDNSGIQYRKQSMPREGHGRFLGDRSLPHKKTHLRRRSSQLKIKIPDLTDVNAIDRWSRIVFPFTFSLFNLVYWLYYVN
T2 sequence (P18507 40-475, one chain of several): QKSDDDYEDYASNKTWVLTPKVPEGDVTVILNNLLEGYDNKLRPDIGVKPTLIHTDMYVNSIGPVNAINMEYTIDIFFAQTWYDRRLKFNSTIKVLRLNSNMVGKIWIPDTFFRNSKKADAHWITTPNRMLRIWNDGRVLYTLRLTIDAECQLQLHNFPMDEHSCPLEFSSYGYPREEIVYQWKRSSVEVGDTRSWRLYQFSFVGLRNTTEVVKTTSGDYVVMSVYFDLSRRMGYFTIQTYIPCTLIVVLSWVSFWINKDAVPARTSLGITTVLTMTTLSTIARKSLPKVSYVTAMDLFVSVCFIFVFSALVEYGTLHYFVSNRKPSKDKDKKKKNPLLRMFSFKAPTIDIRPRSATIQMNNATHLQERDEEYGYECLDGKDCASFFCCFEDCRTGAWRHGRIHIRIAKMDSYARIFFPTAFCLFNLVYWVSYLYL
T1 sequence (P14867 28-456 S297C, one chain of several): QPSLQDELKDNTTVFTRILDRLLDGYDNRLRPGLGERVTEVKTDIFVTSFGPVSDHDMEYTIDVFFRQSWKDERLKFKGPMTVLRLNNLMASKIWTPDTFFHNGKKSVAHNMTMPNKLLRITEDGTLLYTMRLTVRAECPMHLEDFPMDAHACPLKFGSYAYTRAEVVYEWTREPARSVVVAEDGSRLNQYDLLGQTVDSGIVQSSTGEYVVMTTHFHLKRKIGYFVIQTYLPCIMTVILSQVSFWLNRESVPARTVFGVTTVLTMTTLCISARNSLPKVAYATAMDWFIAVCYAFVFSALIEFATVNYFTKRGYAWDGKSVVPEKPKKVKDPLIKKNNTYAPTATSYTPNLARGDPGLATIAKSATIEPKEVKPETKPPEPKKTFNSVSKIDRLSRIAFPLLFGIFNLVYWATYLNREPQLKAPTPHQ
T1 sequence (P18507 40-475, one chain of several): as the sequence (P18507 40-475, one chain of several) above

Structure (SMILES) | SCAMP result, α1+ (M2, M3) S270 [1] | SCAMP result, β3+ (M2, M3) M286 [2] | SCAMP result, γ2+ (M2, M3) S301 [3]
CC(C)c1cc(C2(C(F)(F)F)N=N2)cc(C(C)C)c1CO [pTFD-di-iPr-BnOH] | -* | -* | -*
CCOC(=O)c1cncn1[C@H](C)c1ccccc1 [etomidate, R-etomidate] | -* | – | -*
C=CCC1(c2cccc(C3(C(F)(F)F)N=N3)c2)C(=O)NC(=O)N(C)C1=O (stereo not drawn) [R-mTFD-MPAB, R-5-allyl-1-methyl-5-(m-trifluoromethyl-diazirynylphenyl) barbituric acid] | – | -* | –
